Protocol: The free base Example 35 (10 mg) was weighed into glass vials and water was added in 100 μL portions up to 1 mL then 0.5 mL portions thereafter. Solubility was assessed visually following a brief period of equilibration.

C[C@@H](c1ccc2scnc2c1)N1CCN(c2ncc([S@@](C)(=N)=O)cn2)CC1 (single isomer, unassigned) [Example 35]
visual aqueous solubility: < 1250 µg/mL

Reference: patent US12195455B2, “Succinate and fumarate acid addition salts of piperazine derivatives” (Asceneuron SA, priority 2018, dated 2025)
